Measured values from patent US4386103A, “Dichloroamino acid derivatives useful as potent germicidal and fungicidal agents” (Merck & Co., Inc., priority 1981, dated 1983).

Experiments:
Format in all cases: cell-based
Aspergillus fumigatus = experiment: Contact fungicidal screen, Aspergillus fumigatus; settings: 0.1M NaOAc pH 4.6
Experimental: The organisms used in the Contact Fungicidal Screen are a dermatophyte, trychophyton mentagrophytes, frequently associated with athlete's foot; a yeast, Candida albican, causative agent of thrush and vaginitis; a phycomycete, Rhizopus oryzae, commonly known as black bread mold; an ascomycete, Aspergillus fumagatis, found in chicken droppings and causing lung infections; and another dermatophyte, Microsporum canis, which causes ringworm. These organisms are maintained as stock cultures at 4° C. on agar […] of the following composition: dextrose 2%, Neopeptone (Difco) 1%, agar 2%. Fluid medium of the same nutrient composition (without agar) was used to test the viability of the organisms after exposure to the fungicide. This medium is also known as Sabouraud's medium. Sabouraud's agar plate cultures of Aspergillus fumigatus, Microsporum canis, and a different culture of Trychophyton mentagrophytes are prepared by planting an inoculum at the center of an agar plate and incubating at 25°-30° C. for seven to ten days. The mycelial mats are removed from the surface of the agar and prepared in the same manner as the Rhizopus culture. The compounds are weighed into heat sterilized 100 ml volumetric flasks and immediately before screening dissolved in 0.1 M NaOAc pH 4.6 buffer (test solutions). The Aspergillus, Candida, Microsporum and Rhizopus species are screened in a slightly different manner. Basically, the procedure for the Contact Germicidal Efficiency Screen is utilized. After the test solutions are made up, 5 ml aliquots are pipetted into heat sterilized 25 ml glass stoppered erlenmeyer flasks. The screen is initiated when 0.5 ml of the 5×10^6 cell (spore) per ml suspension is added to the flask containing 5 ml of the test solution. […] The subculture tubes are incubated at 25°-30° C. for ten days with daily observation for mycelial growth. The earliest subculture time at which no growth is present is considered the endpoint and is recorded as the sterilization time. To insure the viability of the culture, a 0.5 ml aliquot of the 5×10^6 cells (spores) per ml suspension is transferred to 5 ml of the pH 4.6 buffer. A loopful of the inoculated buffer is then subcultured to 7 ml of fluid Sabouraud's medium and incubated at 25°-30° C. for ten days. To insure that the dilution of the test solution into the subculture medium does stop the action, a loopful of the test solution and a loopful of the inoculated buffer are transferred into the same subculture tube. This tube is also incubated at 25°-30° C. for ten days.

[1] = tested on: Trychophyton mentagrophytes; experiment: Contact fungicidal screen, Trychophyton mentagrophytes; settings: 0.1M NaOAc pH 4.6
[2] = tested on: Staphylococcus epidermidis; experiment: Contact germicidal screen, Staphylococcus epidermidis ATCC No. 12228
Experimental: (§1) The organisms used in the contact germicidal screen are all maintained as stock cultures on nutrient agar […] 4° C. They are transferred and biochemically diagnosed monthly. The five organisms used are: The media used are: […] Overnight cultures of the test organisms are grown in tryptose phosphate broth. After 15-16 hours, the cultures are centrifuged at […] for 15 minutes, and the supernatant replaced with fresh warm (37° C.) media. After two hours of incubation, the absorbance of the culture at 650 nm is determined and diluted with nutrient broth to 1×10^7 colony forming units per ml (using a previous determined standard curve: colony forming units/ml vs. absorbance at 650). The diluted cultures are maintained at 4°-8° C. throughout the screen. The compounds are weighed into sterile 100 ml volumetric flasks, and immediately before screening dissolved in one of the following buffers: 0.1 M NaOAc pH 4.6 or 0.1 M NaH2 PO4 pH 7.0. If solubility poses a problem, 10-30% methanol is used to effect solution. Two denaturing agents are also tested: […] Horse Serum restored with 100 ml distilled water and 10% Trition×100. When used, 2.5 ml of the denaturing agent is mixed with 2.5 ml of double strength test solution thirty minutes before the bacterial suspension is added. The screen is initiated when 0.2 ml of the bacterial suspension is added to 5.0 ml of the test solution contained in a sterile 25 ml glass stoppered flask. At intervals of 0.5, 2.5, 5.0, 10.0 and 15.0 minutes, a loopful of the inoculated test solution is subcultured into 5 ml of sterile nutrient broth and mixed with a vortex, the high dilution serving to stop the action of the compound. All of the subculture tubes are incubated at 37° C. and checked for signs of growth by turbidity at 1, 3, 5 and 7 days. The earliest subculture time at which no growth is present is considered the endpoint and is recorded as the sterilization time. An aliquot of 0.2 ml of the diluted culture is transferred to 5 ml of buffer to simulate 0.2 ml in 5 ml of test solution. (a) Purity: A loopful of the inoculated buffer is streaked onto nutrient agar to check colony morphology and lack of contaminants. (b) Viability: A loopful of the inoculated buffer is subcultured to 5 ml of nutrient broth as in the screen and incubated at 37° C. for 24 hours. (c) Dilution of the Test Solution: A loopful of the test solution is transferred to a 5 ml tube of nutrient broth, and a loopful of the inoculated buffer is transferred to the same tube of broth. […] (d) Purity of Organisms in the Test Solution: After the 15 minute subculture, a loopful of the inoculated test solution is streaked onto nutrient agar to insure that contamination has not occurred during the screen. (e) lack of Bactericidal Activity of Buffers and Other Solvents: Before a buffer or other solvent is used as a diluent, it is screened against the five organisms to insure that the buffer or solvent has no antibacterial activity itself.

Staphylococcus aureus = experiment: Contact germicidal screen, Staphylococcus aureus ATCC No. 6538
Experimental: as §1

[3] = 10.0+ PPM, 0.1M NaOAc pH 4.6, screened simultaneously with four other compounds
[4] = 300 PPM with 50% Horse Serum, 0.1M NaOAc pH 4.6
[5] = 300 PPM with 50% Triton X100, 0.1M NaOAc pH 4.6
[6] = 308.0 PPM, Triton X100 (10% solution):pH 4.6 buffer 1:1
[7] = 338.7 PPM, horse serum:pH 4.6 buffer 1:1
[8] = 1000 PPM with 50% Horse Serum, 0.1M NaOAc pH 4.6
[9] = 1024.0 PPM, horse serum:pH 4.6 buffer 1:1
[10] = 1070.3 PPM, 0.1M NaH2PO4 pH 7.0
[11] = 291.4 PPM, Triton X100 (10% solution):pH 4.6 buffer 1:1
[12] = 291.4 PPM, horse serum:pH 4.6 buffer 1:1
[13] = 1024.4 PPM, 0.1M NaH2PO4 pH 7.0
[14] = 1042.0 PPM, horse serum:pH 4.6 buffer 1:1

Row | SMILES | Sterilization Time (Aspergillus fumigatus; 10 PPM) [min] | Sterilization Time (Aspergillus fumigatus; 100 PPM) [min] | Sterilization Time (Aspergillus fumigatus; 1000 PPM) [min] | Sterilization Time ([1]; 10 PPM) [min] | Sterilization Time ([1]; 100 PPM) [min] | Sterilization Time ([1]; 1000 PPM) [min] | Sterilization Time [2, 3] [min] | Sterilization Time (summary) ([2]; 10 PPM, 0.1M NaOAc pH 4.6) [min] | Sterilization Time (summary) ([2]; 100 PPM, 0.1M NaOAc pH 4.6) [min] | Sterilization Time (summary) [2, 4] [min] | Sterilization Time (summary) [2, 5] [min] | Sterilization Time (summary) [2, 8] [min] | Sterilization Time (summary) ([2]; 1000 PPM, 0.1M NaOAc pH 4.6) [min] | Sterilization Time (Staphylococcus aureus; [3]) [min] | Sterilization Time (summary) (Staphylococcus aureus; 10 PPM, 0.1M NaOAc pH 4.6) [min] | Sterilization Time (summary) (Staphylococcus aureus; 100 PPM, 0.1M NaOAc pH 4.6) [min] | Sterilization Time (summary) (Staphylococcus aureus; [4]) [min] | Sterilization Time (summary) (Staphylococcus aureus; [5]) [min] | Sterilization Time (summary) (Staphylococcus aureus; [8]) [min] | Sterilization Time (summary) (Staphylococcus aureus; 1000 PPM, 0.1M NaOAc pH 4.6) [min] | further results
1 | CC(C)(COC(=O)CCC(=O)O)N(Cl)Cl [(IV), 2-Dichloroamino-2-methylpropylhemisuccinate] | 15 | 15 | 15 | 5.0 | 2.5 | 0.5 | 10.0 | 10.0 | 2.5 | 15 | 2.5 | 2.5 | 0.5 | 15 | 15 | 2.5 | 15.0 | 2.5 | 2.5 | 0.5 | Sterilization Time ([2]; 8.6 PPM, 0.1M NaOAc pH 4.6): 15.0 min; Sterilization Time ([2]; 9.8 PPM, 0.1M NaH2PO4 pH 7.0): 15 min; Sterilization Time ([2]; 106.2 PPM, 0.1M NaOAc pH 4.6): 2.5 min; Sterilization Time ([2]; 149.7 PPM, 0.1M NaH2PO4 pH 7.0): 15 min; Sterilization Time [2, 6]: 2.5 min; Sterilization Time [2, 7]: 15 min; Sterilization Time ([2]; 1008.0 PPM, 0.1M NaOAc pH 4.6): 0.5 min; Sterilization Time [2, 9]: 2.5 min; Sterilization Time [2, 10]: 10.0 min; Sterilization Time (Staphylococcus aureus; 8.6 PPM, 0.1M NaOAc pH 4.6): 15.0 min; Sterilization Time (Staphylococcus aureus; 9.8 PPM, 0.1M NaH2PO4 pH 7.0): 15 min; Sterilization Time (Staphylococcus aureus; 106.2 PPM, 0.1M NaOAc pH 4.6): 2.5 min; Sterilization Time (Staphylococcus aureus; 149.7 PPM, 0.1M NaH2PO4 pH 7.0): 10.0 min; Sterilization Time (Staphylococcus aureus; [6]): 2.5 min; Sterilization Time (Staphylococcus aureus; [7]): 15.0 min; Sterilization Time (Staphylococcus aureus; 1008.0 PPM, 0.1M NaOAc pH 4.6): 0.5 min; Sterilization Time (Staphylococcus aureus; [9]): 2.5 min; Sterilization Time (Staphylococcus aureus; [10]): 10.0 min
2 | CC(C)(COC(=O)CCCC(=O)O)N(Cl)Cl [(V), 2-dichloramino-2-methylpropyl-hemiglutarate] | 15 | 15 | 15 | 5.0 | 2.5 | 0.5 | 10.0 | 10.0 | 2.5 | 15 | 2.5 | 2.5 | 0.5 | 10.0 | 10.0 | 2.5 | 15 | 2.5 | 2.5 | 0.5 | Sterilization Time ([2]; 10.0 PPM, 0.1M NaH2PO4 pH 7.0): 15 min; Sterilization Time ([2]; 10.0 PPM, 0.1M NaOAc pH 4.6): 10.0 min; Sterilization Time ([2]; 99.1 PPM, 0.1M NaOAc pH 4.6): 2.5 min; Sterilization Time ([2]; 106.7 PPM, 0.1M NaH2PO4 pH 7.0): 15 min; Sterilization Time [2, 11]: 2.5 min; Sterilization Time [2, 12]: 15 min; Sterilization Time ([2]; 911.8 PPM, 0.1M NaOAc pH 4.6): 0.5 min; Sterilization Time [2, 13]: 10.0 min; Sterilization Time [2, 14]: 2.5 min; Sterilization Time (Staphylococcus aureus; 10.0 PPM, 0.1M NaH2PO4 pH 7.0): 15 min; Sterilization Time (Staphylococcus aureus; 10.0 PPM, 0.1M NaOAc pH 4.6): 10.0 min; Sterilization Time (Staphylococcus aureus; 99.1 PPM, 0.1M NaOAc pH 4.6): 2.5 min; Sterilization Time (Staphylococcus aureus; 106.7 PPM, 0.1M NaH2PO4 pH 7.0): 15 min; Sterilization Time (Staphylococcus aureus; [11]): 2.5 min; Sterilization Time (Staphylococcus aureus; [12]): 15 min; Sterilization Time (Staphylococcus aureus; 911.8 PPM, 0.1M NaOAc pH 4.6): 0.5 min; Sterilization Time (Staphylococcus aureus; [13]): 5.0 min; Sterilization Time (Staphylococcus aureus; [14]): 2.5 min
